The results in this text go back to PubChem BioAssay (NCI).

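Compound exposure: 48 hours, 5 concentrations, 96-well plates. TGI: total growth inhibition.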 Bounds are passed on as bounds.

Some test systems named below: CCRF-CEM leukemia; COLO 205 colon; EKVX NSCLC; M14 melanoma; OVCAR-4 ovarian; RPMI-8226 leukemia; SF-268 CNS; SNB-19 CNS; SNB-75 CNS; UO-31 renal; NCI-H23 lung; HOP-62 NSCLC; SK-MEL-5 melanoma.
Common to all, as to assay: NCI tumour cell line growth inhibition, 48 h

For the compound `Cc1c(C)c2c(c(N)c1C#N)C(=O)N(CCN1CCNCC1)C2=O`, the TGI in the test with CCRF-CEM leukemia was greater than 100 µM; with COLO 205 colon it was 78.7 µM; in the test on EKVX NSCLC, greater than 100 µM; in the test with M14 melanoma, greater than 100 µM; with OVCAR-4 ovarian it was greater than 100 µM; with RPMI-8226 leukemia it was greater than 100 µM. The TGI in the test on SF-268 CNS is greater than 100 µM; in the test with SNB-19 CNS, greater than 100 µM; in the test with SNB-75 CNS, 77 µM; in the test on UO-31 renal, 90.9 µM.

Take `O=C1/C(=C/c2ccco2)N=C(c2ccccc2)N1c1cc2cc(Sc3ccccc3)ccc2[nH]1`: the TGI in the test with CCRF-CEM leukemia, with COLO 205 colon, in the test on EKVX NSCLC, in the test on M14 melanoma, with NCI-H23 lung and in the test on OVCAR-4 ovarian was greater than 25 µM throughout. The TGI in the test on RPMI-8226 leukemia was 2.4 µM; in the test on SF-268 CNS it was greater than 25 µM; in the test with SNB-19 CNS, greater than 25 µM; with SNB-75 CNS it was greater than 25 µM; in the test on UO-31 renal, greater than 25 µM.

Take `COc1ccc([C@@]23OC[C@@H]4[C@@H](OC[C@@H]42)c2cc(OC)c(OC)cc23)cc1OC`: the TGI in the test on COLO 205 colon, with EKVX NSCLC, in the test with HOP-62 NSCLC, with M14 melanoma, with NCI-H23 lung and in the test on OVCAR-4 ovarian was greater than 100 µM each time. Moreover, the TGI in the test with RPMI-8226 leukemia, in the test on SK-MEL-5 melanoma, with SNB-19 CNS, in the test with SNB-75 CNS and in the test with UO-31 renal was greater than 100 µM each time.

As to `C=CC[C@@H]1C(=O)[C@@]2(O[Si](C(C)C)(C(C)C)C(C)C)CC[C@@H]1C[C@H]2NC(=O)OCC(Cl)(Cl)Cl`, the TGI with CCRF-CEM leukemia, in the test with COLO 205 colon, in the test on HOP-62 NSCLC, in the test with M14 melanoma, in the test with NCI-H23 lung and with OVCAR-4 ovarian was greater than 100 µM throughout. The TGI with SF-268 CNS, in the test with SK-MEL-5 melanoma, in the test on SNB-19 CNS, in the test with SNB-75 CNS and in the test with UO-31 renal was greater than 100 µM each time.

For the compound `Cc1ccc(S(=O)(=O)Oc2nc3ccccc3nc2N(S(=O)(=O)c2ccc(C)cc2)S(=O)(=O)c2ccc(C)cc2)cc1`, the TGI in the test on CCRF-CEM leukemia, in the test on COLO 205 colon, with EKVX NSCLC, in the test on M14 melanoma, with NCI-H23 lung and in the test on RPMI-8226 leukemia was greater than 100 µM throughout. Also, the TGI in the test on SF-268 CNS, in the test on SK-MEL-5 melanoma, in the test on SNB-19 CNS, with SNB-75 CNS and in the test with UO-31 renal was greater than 100 µM in each case.

`CCc1c(Cc2cc(C)cc(C)c2)n2c(nc1=O)SCC2CBr` (stereo unspecified): the TGI in the test on CCRF-CEM leukemia, with COLO 205 colon, in the test with EKVX NSCLC, in the test with M14 melanoma, in the test with NCI-H23 lung and in the test with OVCAR-4 ovarian was greater than 50 µM throughout. The TGI with RPMI-8226 leukemia, in the test on SF-268 CNS, in the test on SK-MEL-5 melanoma, in the test with SNB-19 CNS, with SNB-75 CNS and in the test with UO-31 renal was greater than 50 µM each time.

`Cc1cc(OCC(=O)N/N=C/C(Br)=C/c2ccccc2)nc(SCC(=O)N/N=C/C(Br)=C/c2ccccc2)n1`: the TGI with CCRF-CEM leukemia, in the test on COLO 205 colon, in the test on EKVX NSCLC, in the test with HOP-62 NSCLC, in the test on M14 melanoma and in the test with NCI-H23 lung was greater than 100 µM throughout. Besides, the TGI in the test with OVCAR-4 ovarian, with RPMI-8226 leukemia, in the test on SF-268 CNS, with SK-MEL-5 melanoma, with SNB-19 CNS and with UO-31 renal was greater than 100 µM each time.

`C=C(Cl)C(=C)CCC(Cl)C(C)C` (stereo unspecified): the TGI in the test with CCRF-CEM leukemia, in the test on COLO 205 colon, with EKVX NSCLC, with HOP-62 NSCLC, with M14 melanoma and in the test on NCI-H23 lung was greater than 100 µM throughout. Further, the TGI in the test on OVCAR-4 ovarian, in the test with RPMI-8226 leukemia, in the test with SF-268 CNS, with SK-MEL-5 melanoma, in the test with SNB-19 CNS and in the test with UO-31 renal was greater than 100 µM each time.

Turning to `O=C(/C=C/c1ccc(O)c(O)c1O)OCCc1ccccc1`, the TGI was 64.5 µM in the test with COLO 205 colon; greater than 100 µM with EKVX NSCLC; 55.5 µM with HOP-62 NSCLC; 37.9 µM in the test with M14 melanoma; 48.7 µM with NCI-H23 lung; 29.5 µM in the test on OVCAR-4 ovarian. Further, the TGI is 52.6 µM with RPMI-8226 leukemia; greater than 100 µM in the test with SF-268 CNS; greater than 100 µM in the test on SK-MEL-5 melanoma; greater than 100 µM in the test with SNB-19 CNS; 78.1 µM in the test on UO-31 renal.

Turning to `O=C1CC(=O)N(CCc2ccccc2)S(=O)(=O)N1CCc1ccccc1`, the TGI in the test on CCRF-CEM leukemia was 35 µM; with COLO 205 colon, 44.2 µM; with HOP-62 NSCLC it was greater than 100 µM; in the test on M14 melanoma, greater than 100 µM; in the test with NCI-H23 lung, 69.1 µM; with OVCAR-4 ovarian, 44.6 µM. Moreover, the TGI in the test on RPMI-8226 leukemia is 52 µM; with SF-268 CNS it was 80.8 µM; in the test on SK-MEL-5 melanoma, 44.2 µM; in the test on SNB-19 CNS, 87.4 µM; with SNB-75 CNS, 84.7 µM; in the test with UO-31 renal, 40.5 µM.

Consider `OC1CN2Cc3cc4c(cc3[C@]13C=C[C@@H](O)CC23)OCO4` (stereo partly specified), for which the TGI with CCRF-CEM leukemia is 48.5 µM; in the test on COLO 205 colon, greater than 100 µM; with EKVX NSCLC, 94.5 µM; with HOP-62 NSCLC it was greater than 100 µM; in the test with M14 melanoma, greater than 100 µM; in the test on NCI-H23 lung it was greater than 100 µM. In addition, the TGI in the test with OVCAR-4 ovarian, in the test with RPMI-8226 leukemia, in the test on SF-268 CNS, in the test on SK-MEL-5 melanoma, in the test on SNB-19 CNS and in the test on UO-31 renal was greater than 100 µM throughout.

Consider `COc1cc(/C=C2/C(=O)N(C(=O)c3ccc(Cl)cc3)N=C2C)cc(OC)c1OC`, for which the TGI with CCRF-CEM leukemia, in the test with COLO 205 colon, in the test on EKVX NSCLC, in the test with M14 melanoma, in the test with NCI-H23 lung and in the test on OVCAR-4 ovarian was greater than 100 µM throughout. The TGI with RPMI-8226 leukemia, with SF-268 CNS, in the test with SK-MEL-5 melanoma, with SNB-19 CNS and in the test with UO-31 renal was greater than 100 µM each time.
